The source made the active and inactive calls.
Experiments:
[1] = target: T1, Probable nicotinate-nucleotide adenylyltransferase (Staphylococcus aureus (strain N315), UniProt P65502); format: functional, Staphylococcus aureus subsp. aureus N315; details: read-out: IC50_Mean;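 on IC50 Mean: confirmatory dose-response retesting of NadD inhibitor hits first found in an ultra-high-throughput screen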
[2] = target: T1, Probable nicotinate-nucleotide adenylyltransferase; format: functional, Staphylococcus aureus subsp. aureus N315
[3] = target: Photoreceptor-specific nuclear receptor (Homo sapiens, UniProt Q9Y5X4); format: functional, cell-based;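 further: CHO-S cells with Gal4-NCOR and VP16-NR2E3 two-hybrid luciferase reporter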
Chain of Photoreceptor-specific nuclear receptor (Q9Y5X4 whole entry, the tested form may be a part): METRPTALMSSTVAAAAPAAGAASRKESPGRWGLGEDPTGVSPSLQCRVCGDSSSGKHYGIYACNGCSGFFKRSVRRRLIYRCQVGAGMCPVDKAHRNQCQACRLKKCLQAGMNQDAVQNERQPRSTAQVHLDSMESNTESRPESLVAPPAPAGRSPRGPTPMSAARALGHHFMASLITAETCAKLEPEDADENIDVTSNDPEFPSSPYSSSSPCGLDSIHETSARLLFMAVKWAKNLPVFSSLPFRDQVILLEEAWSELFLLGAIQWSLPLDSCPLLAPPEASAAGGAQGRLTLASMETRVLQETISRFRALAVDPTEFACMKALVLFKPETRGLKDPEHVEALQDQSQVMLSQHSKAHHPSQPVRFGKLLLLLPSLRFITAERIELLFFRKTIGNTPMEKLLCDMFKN

[4] = cells
[5] = NIH3T3 cell viability loss – ATP luminescence, mouse fibroblasts, counter-screen, dose response (AID 2010); format: functional, cell-based;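 further: cells exposed to compound for about 90 hours before reading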
[6] = NIH-3T3 fibroblast cytotoxicity, dose response, cytotoxicity control, cell-based, fluorescence, Alamar Blue, secondary assay (AID 2327); format: functional;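 further: NIH-3T3 mouse fibroblasts cultured with fluconazole at 8 µg/mL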
[7] = Trypanosoma cruzi growth suppression in host cells – NIH3T3 host cells, beta-gal luminescence, confirmation (AID 2044); format: functional, cell-based;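 further: intracellular parasites grown in NIH/3T3 mouse fibroblasts as host cells; luminescent beta-galactosidase reporter signal from transgenic T. cruzi replicating inside host cells; inhibitors lower the luminescence signal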
[8] = system: Streptococcus sp. 'group A'; test: Streptococcus pyogenes SK(-)GAS viability under kanamycin – luminescence, BacTiterGlo, confirmation, counter-screen for streptokinase expression inhibitor project, dose response (AID 1900); format: functional, organism-based
[9] = viability loss in HeLa cells – cytotoxicity control for MgcRacGAP inhibitor project, dose response (AID 624300); format: functional
[10] = target: T2, Rac GTPase-activating protein 1 (Homo sapiens, UniProt Q9H0H5); test: blockers of MgcRacGAP-driven Rac1 GTP hydrolysis – biochemical, ADP Hunter fluorescence, primary and confirmatory, confirmation (AID 624330); format: functional
T2 sequence (Q9H0H5 whole entry): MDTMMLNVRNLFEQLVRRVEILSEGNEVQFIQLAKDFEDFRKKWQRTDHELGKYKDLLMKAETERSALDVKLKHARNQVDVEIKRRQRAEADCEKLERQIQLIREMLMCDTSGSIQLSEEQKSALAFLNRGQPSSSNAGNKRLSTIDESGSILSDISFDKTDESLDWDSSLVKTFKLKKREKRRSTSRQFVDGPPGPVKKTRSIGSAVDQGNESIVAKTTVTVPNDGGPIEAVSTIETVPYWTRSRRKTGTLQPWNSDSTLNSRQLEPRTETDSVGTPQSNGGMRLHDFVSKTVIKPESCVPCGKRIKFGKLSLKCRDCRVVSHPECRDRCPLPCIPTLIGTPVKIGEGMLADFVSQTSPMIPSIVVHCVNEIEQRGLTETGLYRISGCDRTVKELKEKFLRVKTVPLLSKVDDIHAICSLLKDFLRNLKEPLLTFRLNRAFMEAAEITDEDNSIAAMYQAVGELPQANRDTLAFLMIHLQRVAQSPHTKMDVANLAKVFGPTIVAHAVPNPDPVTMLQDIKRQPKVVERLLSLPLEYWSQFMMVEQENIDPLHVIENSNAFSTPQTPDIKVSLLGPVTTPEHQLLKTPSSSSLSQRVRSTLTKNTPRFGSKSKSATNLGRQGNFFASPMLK

[11] = target: T3, Leucine aminopeptidase (Plasmodium falciparum 3D7, UniProt Q8IL11); test: P. falciparum M17LAP inhibitors, primary screen, biochemical, fluorogenic H-Leu-NHMec substrate, 1536-well (AID 1619); format: functional
T3 sequence (Q8IL11 whole entry): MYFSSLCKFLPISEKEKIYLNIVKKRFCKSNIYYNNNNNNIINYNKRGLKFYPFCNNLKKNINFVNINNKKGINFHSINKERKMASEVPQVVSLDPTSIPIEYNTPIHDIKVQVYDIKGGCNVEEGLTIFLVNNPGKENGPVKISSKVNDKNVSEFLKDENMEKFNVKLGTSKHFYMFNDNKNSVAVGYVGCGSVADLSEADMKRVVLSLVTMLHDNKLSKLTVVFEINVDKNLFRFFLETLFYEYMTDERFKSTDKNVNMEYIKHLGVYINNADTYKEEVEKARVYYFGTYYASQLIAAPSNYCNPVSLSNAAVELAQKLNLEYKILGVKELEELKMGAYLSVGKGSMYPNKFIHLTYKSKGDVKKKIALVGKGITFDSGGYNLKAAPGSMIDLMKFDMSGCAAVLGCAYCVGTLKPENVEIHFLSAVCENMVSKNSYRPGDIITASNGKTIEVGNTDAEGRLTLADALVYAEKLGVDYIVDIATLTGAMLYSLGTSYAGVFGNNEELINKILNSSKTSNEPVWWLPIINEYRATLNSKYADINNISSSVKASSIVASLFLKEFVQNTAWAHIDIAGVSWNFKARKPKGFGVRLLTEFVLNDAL

[12] = target: Nonstructural protein 1 (Influenza A virus, UniProt Q194T2); format: functional, Influenza A virus (A/California/07/2009(H1N1))
Chain of Nonstructural protein 1 (Q194T2 whole entry): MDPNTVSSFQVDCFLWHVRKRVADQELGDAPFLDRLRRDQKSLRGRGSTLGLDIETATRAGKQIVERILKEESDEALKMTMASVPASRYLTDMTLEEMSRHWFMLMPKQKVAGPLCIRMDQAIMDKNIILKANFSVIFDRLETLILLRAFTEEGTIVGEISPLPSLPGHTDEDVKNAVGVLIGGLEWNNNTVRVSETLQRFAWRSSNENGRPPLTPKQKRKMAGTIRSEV

[13] = target: T4, Streptokinase A (Streptococcus pyogenes serotype M1, UniProt P10520); test: viability-normalized secreted streptokinase activity reduction – plasminogen activation absorbance, OD405, dose response (AID 1914); format: functional, Streptococcus pyogenes M1 GAS;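 further: secreted streptokinase activity via plasminogen activation per viability signal from cell pellet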
T4 sequence (P10520 whole entry): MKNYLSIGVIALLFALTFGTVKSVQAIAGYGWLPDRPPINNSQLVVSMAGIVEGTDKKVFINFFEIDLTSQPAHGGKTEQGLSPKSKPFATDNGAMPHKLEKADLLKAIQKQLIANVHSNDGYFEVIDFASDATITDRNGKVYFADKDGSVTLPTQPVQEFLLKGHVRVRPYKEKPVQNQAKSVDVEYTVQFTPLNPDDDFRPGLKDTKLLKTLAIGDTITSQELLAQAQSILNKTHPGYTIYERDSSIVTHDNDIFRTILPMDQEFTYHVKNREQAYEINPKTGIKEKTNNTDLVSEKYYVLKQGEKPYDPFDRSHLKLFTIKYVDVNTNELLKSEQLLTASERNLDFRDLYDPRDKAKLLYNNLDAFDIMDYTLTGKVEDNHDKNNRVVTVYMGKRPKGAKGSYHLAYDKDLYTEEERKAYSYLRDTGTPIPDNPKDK

[14] = fluconazole-exposed Candida albicans growth modulators – fluorescence, retest, confirmation (AID 2467); format: functional, cell-based
[15] = system: Streptococcus; test: GAS UMAA2166 growth inhibition – luminescence, BacTiterGlo, counter-screen for streptokinase expression inhibitor project, dose response (AID 1915); format: functional, organism-based;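 further: potency for reduction of bacterial viability or growth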
[16] = target: ADP-ribosylation factor GTPase-activating protein 1 (Rattus norvegicus, UniProt Q62848); test: Fluorescence polarization-based biochemical high throughput dose response screening assay to identify inhibitors of ADP-ribosylation factor GTPase activating protein 1 (ARFGAP1).; format: functional
Chain of ADP-ribosylation factor GTPase-activating protein 1 (Q62848 whole entry): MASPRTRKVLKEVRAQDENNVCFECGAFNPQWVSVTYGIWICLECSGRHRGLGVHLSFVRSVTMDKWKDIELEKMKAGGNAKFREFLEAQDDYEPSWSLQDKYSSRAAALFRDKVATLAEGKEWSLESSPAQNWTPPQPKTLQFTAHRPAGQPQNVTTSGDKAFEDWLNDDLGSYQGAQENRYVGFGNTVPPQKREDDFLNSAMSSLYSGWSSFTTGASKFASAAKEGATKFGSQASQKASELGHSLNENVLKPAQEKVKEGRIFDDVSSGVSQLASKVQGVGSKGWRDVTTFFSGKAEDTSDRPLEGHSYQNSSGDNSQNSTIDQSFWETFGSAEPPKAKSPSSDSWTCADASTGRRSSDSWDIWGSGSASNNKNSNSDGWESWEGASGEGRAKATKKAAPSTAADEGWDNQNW

[17] = mouse fibroblast viability loss – cell-based, cherry-pick samples, set 2, cytotoxicity control for T. cruzi growth inhibitor project, dose response (AID 651817); format: functional; details: NIH3T3
[18] = target: T5, Protein RecA (Mycobacterium tuberculosis, UniProt P9WHJ3); test: Fluorescence Cell-Free Homogeneous Dose Retest to Identify Inhibitors of RecA-Intein Splicing Activity. [Related pubchem assays (depositor defined):AID2097, AID2223, AID489010, AID492950]; format: functional
T5 sequence (P9WHJ3 whole entry): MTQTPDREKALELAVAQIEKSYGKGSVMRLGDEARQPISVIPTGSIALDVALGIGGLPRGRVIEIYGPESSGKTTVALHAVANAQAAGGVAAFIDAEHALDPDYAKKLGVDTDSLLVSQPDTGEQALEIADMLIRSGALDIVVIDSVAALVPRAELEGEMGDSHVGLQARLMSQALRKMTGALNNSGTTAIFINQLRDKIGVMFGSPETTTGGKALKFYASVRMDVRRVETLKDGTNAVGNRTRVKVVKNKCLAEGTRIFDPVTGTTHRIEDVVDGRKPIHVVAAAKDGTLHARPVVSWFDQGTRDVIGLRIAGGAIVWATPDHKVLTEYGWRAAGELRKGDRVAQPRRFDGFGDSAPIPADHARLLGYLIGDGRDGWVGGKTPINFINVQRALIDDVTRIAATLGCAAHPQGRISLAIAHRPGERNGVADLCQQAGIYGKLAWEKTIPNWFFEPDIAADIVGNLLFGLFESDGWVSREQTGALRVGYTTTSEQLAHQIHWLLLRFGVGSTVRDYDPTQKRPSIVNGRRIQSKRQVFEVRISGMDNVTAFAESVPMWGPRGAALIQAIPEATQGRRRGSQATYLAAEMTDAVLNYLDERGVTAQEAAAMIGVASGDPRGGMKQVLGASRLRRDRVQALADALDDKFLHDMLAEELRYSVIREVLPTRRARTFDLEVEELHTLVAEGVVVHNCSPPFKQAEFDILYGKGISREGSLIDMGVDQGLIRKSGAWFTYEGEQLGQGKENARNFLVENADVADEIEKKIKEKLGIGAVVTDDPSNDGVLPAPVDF

[19] = target: T6, Replicative DNA helicase DnaB (Mycobacterium tuberculosis, UniProt P9WMR3); test: DnaB intein splicing inhibitors, dose response, biochemical, cell-free fluorescence (AID 449749); format: functional
T6 sequence (P9WMR3 whole entry): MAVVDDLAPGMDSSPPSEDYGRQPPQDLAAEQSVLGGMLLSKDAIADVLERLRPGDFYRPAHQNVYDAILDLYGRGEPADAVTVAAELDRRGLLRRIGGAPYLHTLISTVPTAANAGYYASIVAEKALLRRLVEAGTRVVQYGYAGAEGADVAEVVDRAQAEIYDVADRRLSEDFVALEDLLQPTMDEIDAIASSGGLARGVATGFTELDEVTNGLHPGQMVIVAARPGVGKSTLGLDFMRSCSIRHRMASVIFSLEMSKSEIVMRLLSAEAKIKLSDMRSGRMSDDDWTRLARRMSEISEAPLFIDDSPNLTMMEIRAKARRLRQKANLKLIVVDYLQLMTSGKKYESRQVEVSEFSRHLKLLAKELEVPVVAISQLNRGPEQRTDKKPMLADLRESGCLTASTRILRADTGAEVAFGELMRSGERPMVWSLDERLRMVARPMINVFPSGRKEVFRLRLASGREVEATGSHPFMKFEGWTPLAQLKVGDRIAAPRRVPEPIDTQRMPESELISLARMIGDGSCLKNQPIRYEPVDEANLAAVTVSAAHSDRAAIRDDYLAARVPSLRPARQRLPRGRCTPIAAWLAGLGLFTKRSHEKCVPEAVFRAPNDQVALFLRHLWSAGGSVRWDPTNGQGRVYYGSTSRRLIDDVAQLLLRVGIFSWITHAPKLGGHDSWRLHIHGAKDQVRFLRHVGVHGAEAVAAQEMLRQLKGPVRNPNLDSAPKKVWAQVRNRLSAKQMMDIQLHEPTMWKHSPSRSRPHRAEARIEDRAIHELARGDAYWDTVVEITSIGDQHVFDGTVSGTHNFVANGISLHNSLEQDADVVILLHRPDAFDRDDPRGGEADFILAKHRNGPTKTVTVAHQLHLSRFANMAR

[20] = target: T7, Sentrin-specific protease 8 (Homo sapiens, UniProt Q96LD8); format: functional
T7 sequence (Q96LD8 whole entry): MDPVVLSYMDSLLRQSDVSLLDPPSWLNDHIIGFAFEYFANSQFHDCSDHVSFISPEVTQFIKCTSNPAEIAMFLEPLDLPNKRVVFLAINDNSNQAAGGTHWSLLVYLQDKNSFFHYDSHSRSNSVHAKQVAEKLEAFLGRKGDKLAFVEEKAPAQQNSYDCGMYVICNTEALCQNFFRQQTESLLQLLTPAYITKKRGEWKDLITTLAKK

[21] = target: T7, Sentrin-specific protease 8; format: functional; remark: listed apart in the source
[22] = target: T8, Small ubiquitin-related modifier 2 (Homo sapiens, UniProt P61956); test: SUMO2 binding disruption by SUMO1 hits – biochemical, FRET, human SUMO2, uHTS hits, selectivity assay for SUMO1 interaction inhibitor project, dose response (AID 624384); format: functional; details: read-out: IC50_Mean
T8 sequence (P61956 whole entry): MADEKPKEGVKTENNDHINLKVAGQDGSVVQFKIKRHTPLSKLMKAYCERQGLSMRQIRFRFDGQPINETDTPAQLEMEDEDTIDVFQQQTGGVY

[23] = target: T9, Small ubiquitin-related modifier 1 (Homo sapiens, UniProt P63165); test: SUMO1 protein interaction blockers, potency – biochemical, fluorescence polarization, uHTS hits, dose response (AID 624382); format: functional; details: read-out: IC50_Mean
T9 sequence (P63165 whole entry): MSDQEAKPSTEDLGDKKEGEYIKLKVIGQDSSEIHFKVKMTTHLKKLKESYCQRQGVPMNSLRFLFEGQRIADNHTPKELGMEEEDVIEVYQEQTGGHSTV

[24] = Potency on glucagon-like peptide 1 release, dose-response in NCI-H716 cell line, half maximal inhibitory concentration (AID 1117344); format: functional, cell-based
[25] = target: T9, Small ubiquitin-related modifier 1; test: SUMO1 protein-protein binding blockers, potency – biochemical, FRET, dose response (AID 624383); format: functional; details: read-out: IC50_Mean
[26] = target: T8, Small ubiquitin-related modifier 2; test: disruption of SUMO2 interaction with SIM peptide – biochemical, fluorescence polarization, uHTS hits, selectivity assay for SUMO1 interaction inhibitor project, dose response (AID 624385); format: functional; details: read-out: IC50_Mean
[27] = glucagon-like peptide-1 release potency in STC-1, concentration-response, half-maximal inhibitory concentration in the STC-1 line (AID 1117345); format: functional, cell-based

T1 sequence (P65502 whole entry): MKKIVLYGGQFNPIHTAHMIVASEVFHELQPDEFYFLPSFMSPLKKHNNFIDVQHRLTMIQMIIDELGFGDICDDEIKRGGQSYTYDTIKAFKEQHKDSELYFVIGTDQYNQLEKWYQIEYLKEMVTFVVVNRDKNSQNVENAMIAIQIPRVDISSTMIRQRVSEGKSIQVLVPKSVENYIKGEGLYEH

Compound: N#Cc1c(SCc2c(Cl)cccc2Cl)nc(N)[nH]c1=S
- IC50 [1]: 32.9 µM (active)
- IC50 [2]: 13 µM (active)

Compound: CN(C)c1ccc(/C=C/c2ccc3ccccc3[n+]2C)cc1
- IC50 [3]: 19.2 µM (inactive)
- EC50 [4]: < 4 nM (active)
- EC50 [5]: 18.5 µM (active)
- EC50 [6]: > 150 µM (inactive)
- EC50 [7]: < 100 nM (active)
- EC50 [8]: 6.7 µM (active)
- CC50 [9]: 28.9 µM (active)
- IC50 [10]: 46.8 µM (active)
- IC50 [11]: 88.4 µM (active)
- IC50 [12]: 14.3 µM (active)
- EC50 [13]: > 150 µM (not active)
- EC50 [14]: 35 nM (active)
- EC50 [15]: 11.5 µM (active)

Compound: CCC(=O)Nc1ccc(NC(=O)CSc2nnnn2-c2ccc3c(c2)OCCO3)cc1
- IC50 [16]: 40.7 µM (inactive)

Compound: C[C@@H]1CN([C@H](C)CO)C(=O)c2cccc(NC(=O)c3ccncc3)c2O[C@H]1CN(C)Cc1ccc(-c2ccccc2)cc1
- AC50 [17]: 42 µM (inactive)

Compound: O=C1C2=[N+]([O-])C3CCCCC3[N+]([O-])=C2c2ccccc21 (configuration not stated)
- EC50 [18]: 9.54 µM (active)
- AC50 [19]: 6.38 µM (active)
- IC50 [20]: 2.98 µM (active)
- IC50 [21]: 9.46 µM (active)

Compound: [O-][S+](c1cc(Cl)cc(Cl)c1O)c1cc(Cl)cc(Cl)c1O [BITHIONOLOXIDE]
- IC50 [22]: 43.3 µM (inactive)
- IC50 [23]: 876 nM (active)
- IC50 [24]: 19.7 µM (inactive)
- IC50 [25]: 9.66 µM (active)
- IC50 [26]: 3.55 µM (active)
- IC50 [27]: > 40 µM (inactive)
